# Laboratory results taken from the NIST ThermoML archive (doi:10.1016/j.fluid.2005.09.019).
# ± gives the expanded uncertainty stated by the source.
# Assay: wn = mass fraction of the nth substance listed
# Conditions: Other PVT measurement
compound,measurement,setting,value
"CCCCCCCCOC(=O)c1cccc(-c2cccc(C(=O)OCCCCCCCC)c2)c1 [dioctyl [1,1'-biphenyl]-3,3'-dicarboxylate] + O=C=O",mass density,"294.95 K, 21200 kPa, Gas, w1 = 0.018",883 ± 27 kg/m3
same,mass density,"295.55 K, 15610 kPa, Gas, w1 = 0.62",1089 ± 33 kg/m3
same,mass density,"296.05 K, 6100 kPa, Fluid (supercritical or subcritical phases), w1 = 0.277",750 ± 23 kg/m3
same,mass density,"298.55 K, 6480 kPa, Fluid (supercritical or subcritical phases), w1 = 0.277",734 ± 22 kg/m3
same,mass density,"302.15 K, 7070 kPa, Fluid (supercritical or subcritical phases), w1 = 0.277",701 ± 21 kg/m3
same,mass density,"304.15 K, 7450 kPa, Fluid (supercritical or subcritical phases), w1 = 0.277",682 ± 20 kg/m3
same,mass density,"305.75 K, 23790 kPa, Gas, w1 = 0.018",856 ± 26 kg/m3
same,mass density,"306.05 K, 16070 kPa, Gas, w1 = 0.62",1076 ± 32 kg/m3
same,mass density,"312.65 K, 17750 kPa, Gas, w1 = 0.62",1052 ± 32 kg/m3
same,mass density,"313.75 K, 126340 kPa, Gas, w1 = 0.496",1150 ± 35 kg/m3
same,mass density,"318.65 K, 92850 kPa, Gas, w1 = 0.496",1121 ± 34 kg/m3
same,mass density,"324.55 K, 104160 kPa, Gas, w1 = 0.092",1160 ± 35 kg/m3
same,mass density,"324.65 K, 110450 kPa, Gas, w1 = 0.286",1131 ± 34 kg/m3
same,mass density,"326.85 K, 147870 kPa, Gas, w1 = 0.131",1240 ± 37 kg/m3
same,mass density,"328.15 K, 88980 kPa, Gas, w1 = 0.092",1124 ± 34 kg/m3
same,mass density,"329.05 K, 27960 kPa, Gas, w1 = 0.018",804 ± 24 kg/m3
same,mass density,"329.05 K, 90520 kPa, Gas, w1 = 0.286",1097 ± 33 kg/m3
same,mass density,"329.05 K, 137580 kPa, Gas, w1 = 0.256",1150 ± 35 kg/m3
same,mass density,"329.15 K, 121140 kPa, Gas, w1 = 0.388",1178 ± 35 kg/m3
same,mass density,"329.35 K, 116110 kPa, Gas, w1 = 0.201",1141 ± 34 kg/m3
same,mass density,"330.85 K, 105180 kPa, Gas, w1 = 0.388",1139 ± 34 kg/m3
same,mass density,"330.85 K, 113860 kPa, Gas, w1 = 0.256",1125 ± 34 kg/m3
same,mass density,"331.25 K, 106000 kPa, Gas, w1 = 0.131",1160 ± 35 kg/m3
same,mass density,"332.25 K, 83070 kPa, Gas, w1 = 0.286",1083 ± 33 kg/m3
same,mass density,"332.65 K, 20850 kPa, Gas, w1 = 0.62",1031 ± 31 kg/m3
same,mass density,"333.45 K, 68350 kPa, Gas, w1 = 0.496",1075 ± 32 kg/m3
same,mass density,"333.65 K, 93560 kPa, Gas, w1 = 0.201",1111 ± 33 kg/m3
same,mass density,"340.55 K, 73300 kPa, Gas, w1 = 0.092",1062 ± 32 kg/m3
same,mass density,"341.95 K, 70330 kPa, Gas, w1 = 0.286",1044 ± 31 kg/m3
same,mass density,"344.15 K, 77780 kPa, Gas, w1 = 0.388",1077 ± 32 kg/m3
same,mass density,"344.35 K, 77640 kPa, Gas, w1 = 0.256",1045 ± 31 kg/m3
same,mass density,"345.15 K, 74290 kPa, Gas, w1 = 0.201",1048 ± 31 kg/m3
same,mass density,"347.45 K, 60240 kPa, Gas, w1 = 0.496",1049 ± 31 kg/m3
same,mass density,"348.95 K, 30510 kPa, Gas, w1 = 0.018",760 ± 23 kg/m3
same,mass density,"350.05 K, 73950 kPa, Gas, w1 = 0.131",1054 ± 32 kg/m3
same,mass density,"352.15 K, 66510 kPa, Gas, w1 = 0.092",1019 ± 31 kg/m3
same,mass density,"352.95 K, 62980 kPa, Gas, w1 = 0.286",1010 ± 30 kg/m3
same,mass density,"353.95 K, 24590 kPa, Gas, w1 = 0.62",1013 ± 30 kg/m3
same,mass density,"353.95 K, 69580 kPa, Gas, w1 = 0.256",1015 ± 30 kg/m3
same,mass density,"358.75 K, 65340 kPa, Gas, w1 = 0.201",1005 ± 30 kg/m3
same,mass density,"360.85 K, 67620 kPa, Gas, w1 = 0.388",876 ± 26 kg/m3
same,mass density,"363.25 K, 57970 kPa, Gas, w1 = 0.496",997 ± 30 kg/m3
same,mass density,"365.65 K, 63340 kPa, Gas, w1 = 0.092",979 ± 29 kg/m3
same,mass density,"365.85 K, 33480 kPa, Gas, w1 = 0.018",726 ± 22 kg/m3
same,mass density,"366.35 K, 66790 kPa, Gas, w1 = 0.131",1002 ± 30 kg/m3
same,mass density,"366.65 K, 59240 kPa, Gas, w1 = 0.286",976 ± 29 kg/m3
same,mass density,"369.85 K, 63030 kPa, Gas, w1 = 0.256",969 ± 29 kg/m3
same,mass density,"370.45 K, 27170 kPa, Gas, w1 = 0.62",997 ± 30 kg/m3
same,mass density,"372.25 K, 61790 kPa, Gas, w1 = 0.201",968 ± 29 kg/m3
